Source: patent publication US5945325A, “Thermally stable para-nitrobenzyl esterases” (priority 1998, dated 1999)
Like-named read-outs stand apart in the source and are kept apart here.

What was measured:
Test in all cases: Kinetic assays of purified pNB esterase on ester substrates in DMF/PIPES
Type in all cases: biochemical
[1] = molecular target: T1, Bacillus subtilis para-nitrobenzyl esterase variant 1-1H9 (incl. Tyr 370 Phe), SEQ. ID. NO. 4 (Bacillus subtilis, UniProt P37967, form not given/H322R/Y370F); details: 0.1 M PIPES pH 7.0, 30° C.
T1 sequence (P37967 whole entry K23L/S59P/K95Q/N150D/S230A/G242S/K246R/S251A/A291S/H322R/V343A/Y370F/K390E/L463V, form open): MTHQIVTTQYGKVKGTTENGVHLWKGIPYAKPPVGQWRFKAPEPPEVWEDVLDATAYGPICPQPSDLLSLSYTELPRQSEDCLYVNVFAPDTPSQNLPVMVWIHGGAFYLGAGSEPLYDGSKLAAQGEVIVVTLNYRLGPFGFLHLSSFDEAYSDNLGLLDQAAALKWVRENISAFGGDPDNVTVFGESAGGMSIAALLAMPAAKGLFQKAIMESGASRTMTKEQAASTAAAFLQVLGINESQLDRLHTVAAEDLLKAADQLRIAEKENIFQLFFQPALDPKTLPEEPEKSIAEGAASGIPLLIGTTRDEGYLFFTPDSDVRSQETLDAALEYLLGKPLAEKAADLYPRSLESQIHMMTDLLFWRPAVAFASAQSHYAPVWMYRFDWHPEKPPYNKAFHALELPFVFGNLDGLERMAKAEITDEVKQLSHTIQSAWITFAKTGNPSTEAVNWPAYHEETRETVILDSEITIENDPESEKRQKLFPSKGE
Experimental: (§1) FIG. 8a is a plot of variant and wild type pNB esterase reaction kinetics on pNPA in aqueous buffer (0% dimethylformamide). Enzymes were added to a 30° C. reaction solution consisting of 0.1 M PIPES (pH 7.0) and varying concentrations of pNPA.
(§2) FIG. 8b is a plot of variant and wild type pNB esterase reaction kinetics on pNPA in 15% DMF. Enzymes were added to a 30° C. reaction solution consisting of 0.1 M PIPES (pH 7.0), 15% DMF, and varying concentrations of pNPA.
(§3) FIG. 8c is a plot of variant and wild type pNB esterase reaction kinetics on pNPA in 30% DMF. Enzyme were added to a 30° C. reaction solution consisting of 0.1 M PIPES (pH 7.0), 30% DMF, and varying concentrations of pNPA.
(§4) FIG. 9a is a plot of variant wild type pNB esterase kinetics on LCN-pNP in 1% DMF. Enzymes listed were added to a 30° C. reaction solution consisting of 0.1 M PIPES (pH 7.0), 1% DMF, and varying concentrations of LCN-pNP.
(§5) FIG. 9b is a plot of variant and wild type pNB esterase reaction kinetics on LCN-pNP in 15% DMF. Enzymes were added to a 30° C. reaction solution consisting of 0.1 M PIPES (pH 7.0), 15% DMF, and varying concentrations of LCN-pNP.
(§6) FIG. 9c is a plot of variant and wild type pNB esterase reaction kinetics on LCN-pNP in 30% DMF. Enzymes were added to a 30° C. reaction solution consisting of 0.1 M PIPES (pH 7.0), 30% DMF, and varying concentrations of LCN-pNP.
(§7) FIG. 10a is a plot of variant and wild type pNB esterase reaction kinetics on LCN-pNB in 1% DMF. Enzymes were added to a 30° C. reaction solution consisting of 0.1 M PIPES (pH 7.0), 1% DMF, and varying concentrations of LCN-pNB.
(§8) FIG. 10b is a plot of variant and wild type pNB esterase reaction kinetics on LCN-pNB in 15% DMF. Enzyme were added to a 30° C. reaction solution consisting of 0.1 M PIPES (pH 7.0), 15% DMF, and varying concentrations of LCN-pNB.
Bacteria expressing seven pNB esterases, O-WT (SEQ. ID. NO. 2), 1-1H9, 2-19E10, 3-10C4, 4-38B9, 4-43E7, and 4-54B9, were grown in on cultures, and the enzymes were purified. These purified enzymes were assayed for their ability to hydrolyze the different ester substrates in the presence of various concentrations of DMF.
Kinetic assays were performed on three substrates: pNPA, LCN-pNP, and p-nitrobenzyl loracarbef nucleus (LCN-pNB). For pNPA and LCN-pNP substrates, final concentrations varying from 0.0625 mM to 16 mM and 0, 15, and 30% DMF in 0.1 M PIPES (pH 7.0) were combined with equal volumes of enzyme samples. These samples were mixed simultaneously in a 96 well plate and monitored with the 96 well plate reader. The absorbance values were recorded, linearly regressed, and then used for calculating kinetic parameters. For the LCN-pNB substrate, final concentrations varying from 0.0156 mM to 8.0 mM and 0, 15 and 30% DMF in PIPES (pH 7.0) were combined with enzyme samples in a quartz cuvette and were measured in a spectrophotometer at 289 nm. All assays were measured in triplicate.

[2] = molecular target: Bacillus subtilis para-nitrobenzyl esterase (pNB esterase), wild type 0-WT, SEQ. ID. NO. 2 (Bacillus subtilis, UniProt P37967); details: 0.1 M PIPES pH 7.0, 30° C.
Sequence of Bacillus subtilis para-nitrobenzyl esterase (pNB esterase), wild type 0-WT, SEQ. ID. NO. 2 (P37967 whole entry K23L/S59P/K95Q/N150D/S230A/G242S/K246R/S251A/A291S/V343A/K390E/L463V): as the sequence (P37967 whole entry K23L/S59P/K95Q/N150D/S230A/G242S/K246R/S251A/A291S/H322R/V343A/Y370F/K390E/L463V, form open) above, with R322H, F370Y counted along it
Experimental: as §1, §2, §3, §4, §5, §6, §7, §8
(§9) Bacteria expressing seven pNB esterases, O-WT (SEQ. ID. NO. 2), 1-1H9, 2-19E10, 3-10C4, 4-38B9, 4-43E7, and 4-54B9, were grown in on cultures, and the enzymes were purified. These purified enzymes were assayed for their ability to hydrolyze the different ester substrates in the presence of various concentrations of DMF. FIGS. 8a, b and c show the specific reaction rates on pNPA as a function of pNPA substrate concentration for this series of evolved variants from the four generations of mutagenesis and screening. […] The wild type enzyme outperforms 1-1H9 in purely aqueous buffer (FIG. 8a). The actual screening, however, was performed in the presence of DMF, and in 15 and 30% DMF, 1-1H9 has higher specific activity towards pNPA than wild type (FIGS. 8b and 8c). Similar trends are seen for the remaining variants assayed on this substrate. […] In 30% DMF, wild type drops still further relative to the pNB esterase variants. Variants 4-38B9 and 4-43E7, presumably by virtue of having been screened in DMF for four rounds of mutagenesis, are the best performers in 30% DMF.
(§10) DMF dramatically increases KM while also decreasing kcat. For the LCN substrates, the mutations accumulated during directed evolution mitigate the increased KM. […] At substrate concentrations […], increased specific activity will result mainly from improvements in kcat. These improvements are the most useful for enzymes intended to be used for transformations in high substrate concentrations.
(§11) Kinetic assays were performed on three substrates: pNPA, LCN-pNP, and p-nitrobenzyl loracarbef nucleus (LCN-pNB). For pNPA and LCN-pNP substrates, final concentrations varying from 0.0625 mM to 16 mM and 0, 15, and 30% DMF in 0.1 M PIPES (pH 7.0) were combined with equal volumes of enzyme samples. These samples were mixed simultaneously in a 96 well plate and monitored with the 96 well plate reader. The absorbance values were recorded, linearly regressed, and then used for calculating kinetic parameters. […]

[3] = molecular target: Bacillus subtilis para-nitrobenzyl esterase variant 2-19E10 (1-1H9 substitutions plus Met 358 Val), SEQ. ID. NO. 6 (Bacillus subtilis, UniProt P37967, form not given/H322R/M358V/Y370F); details: 0.1 M PIPES pH 7.0, 30° C.
Sequence of Bacillus subtilis para-nitrobenzyl esterase variant 2-19E10 (1-1H9 substitutions plus Met 358 Val), SEQ. ID. NO. 6 (P37967 whole entry K23L/S59P/K95Q/N150D/S230A/G242S/K246R/S251A/A291S/H322R/V343A/M358V/Y370F/K390E/L463V, form open): as the sequence (P37967 whole entry K23L/S59P/K95Q/N150D/S230A/G242S/K246R/S251A/A291S/H322R/V343A/Y370F/K390E/L463V, form open) above, with M358V counted along it
Experimental: as §1, §2, §3, §4, §5, §6, §7, §8, §9, §10, §11

[4] = molecular target: Bacillus subtilis para-nitrobenzyl esterase variant 3-10C4 (2-19E10 plus Leu 144 Met), SEQ. ID. NO. 8 (Bacillus subtilis, UniProt P37967, form not given/H322R/L144M/M358V/Y370F); details: 0.1 M PIPES pH 7.0, 30° C.
Sequence of Bacillus subtilis para-nitrobenzyl esterase variant 3-10C4 (2-19E10 plus Leu 144 Met), SEQ. ID. NO. 8 (P37967 other isoform, or with tags, fused parts or gaps with the stated changes, form open): as the sequence (P37967 whole entry K23L/S59P/K95Q/N150D/S230A/G242S/K246R/S251A/A291S/H322R/V343A/Y370F/K390E/L463V, form open) above, with L144M, M358V counted along it
Experimental: as §1, §2, §3, §4, §5, §6, §7, §8, §9, §10, §11

[5] = molecular target: Bacillus subtilis para-nitrobenzyl esterase variant 4-38B9 (3-10C4 plus Ile 60 Val), SEQ. ID. NO. 10 (Bacillus subtilis, UniProt P37967, form not given/H322R/I60V/L144M/M358V/Y370F); details: 0.1 M PIPES pH 7.0, 30° C.
Sequence of Bacillus subtilis para-nitrobenzyl esterase variant 4-38B9 (3-10C4 plus Ile 60 Val), SEQ. ID. NO. 10 (P37967 other isoform, or with tags, fused parts or gaps with the stated changes, form open): as the sequence (P37967 whole entry K23L/S59P/K95Q/N150D/S230A/G242S/K246R/S251A/A291S/H322R/V343A/Y370F/K390E/L463V, form open) above, with I60V, L144M, M358V counted along it
Experimental: as §1, §2, §3, §4, §5, §6, §7, §8, §9, §10, §11

[6] = molecular target: Bacillus subtilis para-nitrobenzyl esterase variant 4-43E7 (3-10C4 plus Leu 334 Val and one more substitution), SEQ. ID. NO. 12 (Bacillus subtilis, UniProt P37967, form not given/H322R/L144M/L334V/M358V/S94G/Y370F); details: 0.1 M PIPES pH 7.0, 30° C.
Sequence of Bacillus subtilis para-nitrobenzyl esterase variant 4-43E7 (3-10C4 plus Leu 334 Val and one more substitution), SEQ. ID. NO. 12 (P37967 other isoform, or with tags, fused parts or gaps with the stated changes, form open): as the sequence (P37967 whole entry K23L/S59P/K95Q/N150D/S230A/G242S/K246R/S251A/A291S/H322R/V343A/Y370F/K390E/L463V, form open) above, with S94G, L144M, L334V, M358V counted along it
Experimental: as §1, §2, §3, §4, §5, §6, §7, §8, §9, §10, §11

[7] = molecular target: Bacillus subtilis para-nitrobenzyl esterase variant 4-54B9 (3-10C4 plus Leu 334 Ser and one more substitution), SEQ. ID. NO. 14 (Bacillus subtilis, UniProt P37967, form not given/H322R/K267R/L144M/L334S/M358V/Y370F); details: for kcat (p-nitrophenyl loracarbef nucleus) / Km / kcat (p-nitrobenzyl loracarbef nucleus): 0.1 M PIPES pH 7.0, 30° C.
Sequence of Bacillus subtilis para-nitrobenzyl esterase variant 4-54B9 (3-10C4 plus Leu 334 Ser and one more substitution), SEQ. ID. NO. 14 (P37967 other isoform, or with tags, fused parts or gaps with the stated changes, form open): as the sequence (P37967 whole entry K23L/S59P/K95Q/N150D/S230A/G242S/K246R/S251A/A291S/H322R/V343A/Y370F/K390E/L463V, form open) above, with L144M, K267R, L334S, M358V counted along it
Experimental: as §1, §2, §3, §4, §5, §6, §7, §8, §9, §10, §11

[8] = molecular target: T1, Bacillus subtilis para-nitrobenzyl esterase variant 1-1H9 (incl. Tyr 370 Phe), SEQ. ID. NO. 4; details: 0% DMF, 0.1 M PIPES pH 7.0, 30° C.
[9] = 15% DMF, read-out: Km (p-nitrophenyl loracarbef nucleus)
[10] = 30% DMF, read-out: Km (p-nitrophenyl loracarbef nucleus)
[11] = 0% DMF, read-out: Km (p-nitrophenyl loracarbef nucleus)
[12] = 15% DMF, read-out: Km (p-nitrobenzyl loracarbef nucleus)
[13] = 0% DMF, read-out: Km (p-nitrobenzyl loracarbef nucleus)
[14] = 15% DMF, on LCN-pNB, relative to wild type

NC1C(=O)N2C(C(=O)Oc3ccc([N+](=O)[O-])cc3)=C(Cl)CCC12 (stereo not drawn) [p-nitrophenyl loracarbef nucleus]
kcat (p-nitrophenyl loracarbef nucleus) ([1]; 15% DMF): 0.07
Km [1, 9]: 1840 µM
kcat (p-nitrophenyl loracarbef nucleus) ([1]; 30% DMF): 0.021
Km [1, 10]: 6050 µM
kcat (p-nitrophenyl loracarbef nucleus) ([2]; 0% DMF): 0.14
Km [2, 11]: 70 µM
kcat (p-nitrophenyl loracarbef nucleus) ([2]; 15% DMF): 0.10
Km [2, 9]: 2360 µM
kcat (p-nitrophenyl loracarbef nucleus) ([2]; 30% DMF): 0.024
Km [2, 10]: 7550 µM
kcat (p-nitrophenyl loracarbef nucleus) ([3]; 0% DMF): 0.25
Km [3, 11]: 90 µM
kcat (p-nitrophenyl loracarbef nucleus) ([3]; 15% DMF): 0.12
Km [3, 9]: 1500 µM
kcat (p-nitrophenyl loracarbef nucleus) ([3]; 30% DMF): 0.023
Km [3, 10]: 4670 µM
kcat (p-nitrophenyl loracarbef nucleus) ([4]; 0% DMF): 0.35
Km [4, 11]: 110 µM
kcat (p-nitrophenyl loracarbef nucleus) ([4]; 15% DMF): 0.21
Km [4, 9]: 1770 µM
kcat (p-nitrophenyl loracarbef nucleus) ([4]; 30% DMF): 0.044
Km [4, 10]: 5180 µM
kcat (p-nitrophenyl loracarbef nucleus) ([5]; 0% DMF): 0.39
Km [5, 11]: 60 µM
kcat (p-nitrophenyl loracarbef nucleus) ([5]; 15% DMF): 0.25
Km [5, 9]: 1410 µM
kcat (p-nitrophenyl loracarbef nucleus) ([5]; 30% DMF): 0.067
Km [5, 10]: 5680 µM
kcat (p-nitrophenyl loracarbef nucleus) ([6]; 0% DMF): 0.67
Km [6, 11]: 80 µM
kcat (p-nitrophenyl loracarbef nucleus) ([6]; 15% DMF): 0.40
Km [6, 9]: 1270 µM
kcat (p-nitrophenyl loracarbef nucleus) ([6]; 30% DMF): 0.094
Km [6, 10]: 5090 µM
kcat (p-nitrophenyl loracarbef nucleus) ([7]; 0% DMF): 1.44
Km [7, 11]: 120 µM
kcat (p-nitrophenyl loracarbef nucleus) ([7]; 15% DMF): 0.93
Km [7, 9]: 1270 µM
kcat (p-nitrophenyl loracarbef nucleus) ([7]; 30% DMF): 0.141
Km [7, 10]: 2920 µM
kcat (p-nitrophenyl loracarbef nucleus) [8]: 0.08
Km ([8]; read-out: Km (p-nitrophenyl loracarbef nucleus)): 30 µM

NC1C(=O)N2C(C(=O)OCc3ccc([N+](=O)[O-])cc3)=C(Cl)CCC12 (stereo not drawn) [p-nitrobenzyl loracarbef nucleus]
kcat (p-nitrobenzyl loracarbef nucleus) ([1]; 15% DMF): 0.69
Km [1, 12]: 850 µM
kcat (p-nitrobenzyl loracarbef nucleus) ([2]; 0% DMF): 1.64
Km [2, 13]: 40 µM
kcat (p-nitrobenzyl loracarbef nucleus) ([2]; 15% DMF): 0.54
Km [2, 12]: 880 µM
kcat (p-nitrobenzyl loracarbef nucleus) ([3]; 0% DMF): 4.59
Km [3, 13]: 40 µM
kcat (p-nitrobenzyl loracarbef nucleus) ([3]; 15% DMF): 1.81
Km [3, 12]: 870 µM
kcat (p-nitrobenzyl loracarbef nucleus) ([4]; 0% DMF): 6.53
Km [4, 13]: 70 µM
kcat (p-nitrobenzyl loracarbef nucleus) ([4]; 15% DMF): 1.62
Km [4, 12]: 400 µM
kcat (p-nitrobenzyl loracarbef nucleus) ([5]; 0% DMF): 8.51
Km [5, 13]: 40 µM
kcat (p-nitrobenzyl loracarbef nucleus) ([5]; 15% DMF): 1.89
Km [5, 12]: 310 µM
kcat (p-nitrobenzyl loracarbef nucleus) ([6]; 0% DMF): 9.13
Km [6, 13]: 30 µM
kcat (p-nitrobenzyl loracarbef nucleus) ([6]; 15% DMF): 3.02
Km [6, 12]: 370 µM
kcat (p-nitrobenzyl loracarbef nucleus) ([7]; 0% DMF): 18.96
Km [7, 13]: 50 µM
kcat (p-nitrobenzyl loracarbef nucleus) ([7]; 15% DMF): 6.84
Km [7, 12]: 460 µM
KM change from wild type to 4-54B9 [7, 14]: decreases by less than a factor of two
kcat increase from wild type to 4-54B9 [7, 14]: more than 9 fold
kcat (p-nitrobenzyl loracarbef nucleus) [8]: 1.94
Km ([8]; read-out: Km (p-nitrobenzyl loracarbef nucleus)): 40 µM
